Source: patent US20100048693A1, “Treatment of COPD” (The Regents of the University of Colorado, A Body Corporate, priority 2006, published 2010)
Entries after “also recorded” stand apart in the source; their conditions may differ.

How the values were obtained:
Format in all cases: cell-based, human
[1] = test system: PGI2S gene expression; assay: Real time RT-PCR of PGI2S gene expression in HPMVEC; conditions: for effect of pre-incubation on PGI2S gene expression in CSE-exposed cells: four hour pre-incubation (SOD mimetic 100 U/ml, catalase 100 U/ml, DPI 0.1 μM, L-NAME 1 mM), 1% CSE for 4 hours; for PGI2S gene (mRNA) expression after aldehyde exposure: HPMVEC, 1 and 10 μM aldehyde, about 24 hours after exposure
Method: (§1) Human pulmonary microvascular endothelial cells (HPMVEC, passage 4-6) and EGM-2-MV medium (containing 5% FBS, hydrocortisone, human recombinant VEGF, recombinant human fibroblast growth factor-B, recombinant insulin-like growth factor-1, human recombinant epidermal growth factor, ascorbic acid, gentamycin and amphotericin-B) were purchased from Clonetics Corporation (Baltimore, Md., USA). Cells were grown to confluency at 37° C. in a humidified atmosphere of 21% O2, 5% CO2. N-acetyl-L-cysteine (NAC) and diphenyleneiodonium chloride (DPI) were obtained from Sigma-Aldrich (St. Louis, Mo., USA). N-nitro-l-arginine methyl ester (L-NAME) was obtained from Cayman Chemical (Ann Arbor, Mich.). Z-Asp2,6-dichlorobenzoylmethylketone (Caspase Family Inhibitor IV) was obtained from Alexis Biochemicals (San Diego, Calif., USA). Both an SOD mimetic and catalase were obtained from National Jewish Medical Center. Acrolein, an α,β-unsaturated aldehyde, and several […] aldehydes (acetaldehyde, crotonaldehyde, proprionaldehyde (i.e., propanal) were purchased from Sigma Aldrich (St. Louis, Mo., USA)
(§2) Cigarette smoke extract was prepared by a modification of a previously published method, e.g., Carp et al., Am. Rev. Respir. Dis., 1978, 118, 617-621. Briefly, one non-filtered Camel cigarette (R.J. Reynolds, Winston-Salem, N.C.) was passed through 10 mL of Phosphate-buffered saline (PBS) using a vacuum pump. This 100% CSE was adjusted to pH 7.4 and filtered through a […] pore filter (Fisher, Hampton, N.H., USA) and the CSE was diluted to the appropriate concentration and added to endothelial cells within 10 min of preparation.
(§3) Total RNA was extracted using the RNeasy Mini Kit (Qiagen, Valencia, Calif.), following the manufacturer's instructions. 1 μg of RNA was reverse-transcribed using random primer and MultiScribe RT (High-Capacity cDNA Archive Kit, Applied Biosystems, Foster City, Calif.). Assay-on-demand gene expression probe for PGI2S: Hs00168766, COX-1:Hs00377721, COX-2:Hs00153133, cPLA2:Hs00233352, and β-actin: Hs999999903 were obtained from Applied Biosystems (Foster City, Calif.) PCR reactions were performed in 20 μL volumes containing 9 μL of cDNA, 10 μL of TaqMan Master Mix (Applied Biosystems) and 1 μL of assay-on-demand primer and probe. Real-time PCR was conducted on the Applied Biosystems GeneAmp 5700 sequence Detection System and signal was detected by the GeneAmp 5700 SDS software (Applied Biosystems). All values were reported relative to β-Actin expression.

[2] = test system: COX-2 gene expression; assay: Real time RT-PCR of COX-2 gene expression in HPMVEC; conditions: for effect of pre-incubation on COX-2 gene expression in CSE-exposed cells: four hour pre-incubation (SOD mimetic 100 U/ml, catalase 100 U/ml, DPI 0.1 μM, L-NAME 1 mM), 1% CSE for 4 hours; for COX-2 gene expression after aldehyde exposure: HPMVEC, 1 and 10 μM acrolein
Method: as §1, §2, §3

[3] = test system: PGI2S protein expression; assay: Western blotting of PGI2S protein expression in HPMVEC; conditions: about 48 hours post exposure
Method: as §1
20 μg of protein was separated on NuPAGE Novex 4-12% Bis-Tris Gel (Invitrogen Carlsbad, Calif., USA) and transferred to a polyvinylidene fluoride (PVDF) membrane (Invitrogen, Carlsbad, Calif., USA). The membrane was blocked with 5% nonfat dry milk in PBS containing 0.05% Tween (PBST) for 1 hour. […]

[4] = test system: HPMVEC; assay: Caspase 3/7 assay of apoptosis in HPMVEC exposed to CSE; conditions: HPMVEC pre-treated with Iloprost 1 μM and 10 μM for 30 minutes prior to CSE exposure
Method: Human pulmonary microvascular endothelial cells (HPMVEC, passage 4-6) and EGM-2-MV medium (containing 5% FBS, hydrocortisone, human recombinant VEGF, recombinant human fibroblast growth factor-B, recombinant insulin-like growth factor-1, human recombinant epidermal growth factor, ascorbic acid, gentamycin and amphotericin-B) were purchased from Clonetics Corporation (Baltimore, Md., USA). Cells were grown to confluency at 37° C. in a humidified atmosphere of 21% O2, 5% CO2. N-acetyl-L-cysteine (NAC) and diphenyleneiodonium chloride (DPI) were obtained from Sigma-Aldrich (St. Louis, Mo., USA). N-nitro-l-arginine methyl ester (L-NAME) was obtained from Cayman Chemical (Ann Arbor, Mich.). […]
Immunohistochemical staining on both PGI2S transgenic mice and wild type littermates was conducted using similar protocols to the above, however, cleaved caspase 3 antibody (Cell Signaling technology Danvers, Mass.) was used to assess apoptosis. In a blinded fashion, small, medium and large pulmonary arteries were scored for endothelial caspase staining. In-vitro, the rate of apoptosis in primary human microvascular endothelial cells was analyzed by the Vybrant Apoptosis Assay Kit from Molecular Probes Inc. (Eugene, Oreg., USA) according to the manufacturer's protocol. […] In addition, apoptosis of HPMVEC was assessed by Caspase 3/7 assay according to the protocol provided (Promega Madison, Wis.).

## CC(=O)N[C@@H](CS)C(=O)O [NAC, N-acetyl-L-cysteine]
[1]; HPMVEC pre-incubated four hours with 1 mM NAC, then 1% CSE, RT-PCR at four hours and 24 hours
  prevention of down-regulation of PGI2S gene expression by 1% CSE: no significant prevention
[2]; HPMVEC pre-incubated four hours with 1 mM NAC, then 1% CSE, P<0.05
  effect on CSE mediated induction of COX-2 gene expression: significantly reduce or prevent

## catalase
[1]
  effect of pre-incubation on PGI2S gene expression in CSE-exposed cells: did not significantly affect
[2]
  effect of pre-incubation on COX-2 gene expression in CSE-exposed cells: did not significantly affect

## c1ccc2c(c1)[I+]c1ccccc1-2 [DPI, diphenyleneiodonium chloride]
[1]
  effect of pre-incubation on PGI2S gene expression in CSE-exposed cells: did not significantly affect
[2]
  effect of pre-incubation on COX-2 gene expression in CSE-exposed cells: did not significantly affect

## CC=O [acetaldehyde]
[1]
  PGI2S gene (mRNA) expression after aldehyde exposure: did not result in suppression

## C=CC=O [Acrolein]
[1]
  PGI2S gene (mRNA) expression after aldehyde exposure: reduction in PGI2S gene expression
[2]
  COX-2 gene expression after aldehyde exposure: trend toward induction
[2]; listed as acrolein
  COX-2 gene expression after aldehyde exposure: No significant change
[3]
  PGI2S protein expression after aldehyde exposure: suppressed

## CC#CCC(C)[C@H](O)/C=C/[C@@H]1[C@H]2C/C(=C/CCCC(=O)O)C[C@H]2C[C@H]1O (stereo partly drawn) [Iloprost]
[4]
  endothelial apoptosis as measured by caspase 3/7 activity: significant reduction; also recorded: at least partial protective anti-apoptotic effect

## C/C=C/C=O [crotonaldehyde]
[1]
  PGI2S gene (mRNA) expression after aldehyde exposure: did not result in suppression

## CCC=O [propionaldehyde]
[1]
  PGI2S gene (mRNA) expression after aldehyde exposure: did not result in suppression
[1]; listed as Propionaldehyde
  PGI2S gene (mRNA) expression after aldehyde exposure: statistically significant induction
